ChEMBL document CHEMBL6153174, “Design and Synthesis of Novel Deazapurine DNMT 1 Inhibitors with In Vivo Efficacy in DLBCL” (J Med Chem, 2025)
Active and inactive are the calls of the source. No cut-off for these calls is given here.

Columns and labels:
[1] = test system: MV4-11; assay: Antiproliferative activity against human MV4-11 cells assessed as inhibition of cell viability measured after 72 hrs by MTT assay; assay type: functional, cell-based; conditions: MV4-11, 72 h
[2] = biological target: T1, DNA (cytosine-5)-methyltransferase 1 (Homo sapiens, UniProt P26358); assay: Inhibition of DNMT1 (unknown origin) at 1 uM preincubated for 15 mins followed by substrate and [3H-SAM] addition and measured after 60 mins by microbeta analysis relative to control; conditions: time 75.0 min
[3] = test system: U-937; assay: Antiproliferative activity against human U-937 cells assessed as inhibition of cell viability measured after 72 hrs by MTT assay; assay type: functional, cell-based; conditions: U-937, 72 h
[4] = biological target: T2, Histone-lysine N-methyltransferase EHMT2 (Homo sapiens) (UniProt Q96KQ7); assay: Inhibition of G9a (unknown origin) at 5 uM preincubated for 15 mins followed by substrate and [3H-SAM] addition and measured after 60 mins by microbeta analysis relative to control; conditions: time 75.0 min
T2 sequence (whole entry): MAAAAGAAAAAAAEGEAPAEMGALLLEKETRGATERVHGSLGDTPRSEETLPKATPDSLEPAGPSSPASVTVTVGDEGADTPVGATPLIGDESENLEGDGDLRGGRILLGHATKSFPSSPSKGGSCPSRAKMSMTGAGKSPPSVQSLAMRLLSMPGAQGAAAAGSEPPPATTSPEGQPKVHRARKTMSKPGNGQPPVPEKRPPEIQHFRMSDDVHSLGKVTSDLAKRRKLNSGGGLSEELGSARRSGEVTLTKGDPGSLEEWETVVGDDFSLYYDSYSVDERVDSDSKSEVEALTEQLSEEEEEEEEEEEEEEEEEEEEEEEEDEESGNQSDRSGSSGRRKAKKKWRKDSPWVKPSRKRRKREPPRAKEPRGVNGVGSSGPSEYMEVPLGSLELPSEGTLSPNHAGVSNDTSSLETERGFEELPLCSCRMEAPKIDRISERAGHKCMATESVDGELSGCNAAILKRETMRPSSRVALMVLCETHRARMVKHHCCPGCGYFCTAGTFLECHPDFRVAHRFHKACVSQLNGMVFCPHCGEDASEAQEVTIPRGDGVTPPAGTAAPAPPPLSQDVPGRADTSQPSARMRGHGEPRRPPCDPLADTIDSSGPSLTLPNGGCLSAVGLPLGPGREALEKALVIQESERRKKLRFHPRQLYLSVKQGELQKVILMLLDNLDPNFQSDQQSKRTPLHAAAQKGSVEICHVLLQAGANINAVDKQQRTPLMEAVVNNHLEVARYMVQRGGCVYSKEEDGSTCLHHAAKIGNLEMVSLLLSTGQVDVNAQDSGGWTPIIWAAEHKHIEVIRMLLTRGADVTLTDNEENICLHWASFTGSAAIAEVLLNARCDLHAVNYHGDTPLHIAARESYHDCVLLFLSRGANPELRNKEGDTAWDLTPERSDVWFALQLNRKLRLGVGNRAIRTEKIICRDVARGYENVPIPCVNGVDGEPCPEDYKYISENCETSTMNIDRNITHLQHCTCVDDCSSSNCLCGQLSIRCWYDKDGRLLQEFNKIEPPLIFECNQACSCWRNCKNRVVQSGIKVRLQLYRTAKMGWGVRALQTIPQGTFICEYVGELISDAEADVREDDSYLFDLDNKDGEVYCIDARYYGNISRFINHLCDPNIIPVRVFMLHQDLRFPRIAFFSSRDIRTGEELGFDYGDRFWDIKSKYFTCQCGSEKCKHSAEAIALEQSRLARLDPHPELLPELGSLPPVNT

[5] = biological target: T1, DNA (cytosine-5)-methyltransferase 1; assay: Inhibition of DNMT1 (unknown origin) preincubated for 15 mins followed by substrate and [3H-SAM] addition and measured after 60 mins by microbeta analysis
[6] = biological target: T3, DNA (cytosine-5)-methyltransferase 3A (Homo sapiens, UniProt Q9Y6K1); assay: Inhibition of DNMT3A (unknown origin) at 5 uM preincubated for 15 mins followed by substrate and [3H-SAM] addition and measured after 60 mins by microbeta analysis relative to control; conditions: time 75.0 min
[7] = biological target: T4, DNA (cytosine-5)-methyltransferase 3B (Homo sapiens, UniProt Q9UBC3); assay: Inhibition of DNMT3B (unknown origin) at 5 uM preincubated for 15 mins followed by substrate and [3H-SAM] addition and measured after 60 mins by microbeta analysis relative to control; conditions: time 75.0 min
[8] = biological target: T3, DNA (cytosine-5)-methyltransferase 3A; assay: Inhibition of DNMT3A (unknown origin) preincubated for 15 mins followed by substrate and [3H-SAM] addition and measured after 60 mins by microbeta analysis
[9] = biological target: T4, DNA (cytosine-5)-methyltransferase 3B; assay: Inhibition of DNMT3B (unknown origin) preincubated for 15 mins followed by substrate and [3H-SAM] addition and measured after 60 mins by microbeta analysis
[10] = biological target: T1, DNA (cytosine-5)-methyltransferase 1; assay: Inhibition of DNMT1 (unknown origin) at 5 uM preincubated for 15 mins followed by substrate and [3H-SAM] addition and measured after 60 mins by microbeta analysis relative to control; conditions: time 75.0 min
[11] = biological target: T5, Histone-lysine N-methyltransferase EHMT2 (Homo sapiens, UniProt Q96KQ7); assay: Inhibition of G9a (unknown origin) preincubated for 15 mins followed by substrate and [3H-SAM] addition and measured after 60 mins by microbeta analysis
T5 sequence (Q96KQ7 whole entry): T2 sequence (whole entry)

[12] = biological target: T1, DNA (cytosine-5)-methyltransferase 1; assay: Inhibition of DNMT1 in human DOHH-2 cells assessed as inhibition of DNA methylation incubated for 48 hrs by Western blot analysis; assay type: cell-based; conditions: dose 10-1000 nM
[13] = test system: U2932; assay: Antiproliferative activity against human U2932 cells assessed as inhibition of cell viability measured after 72 hrs by MTT assay; assay type: functional, cell-based; conditions: U2932, 72 h
[14] = test system: Jurkat; assay: Antiproliferative activity against human Jurkat cells assessed as inhibition of cell viability measured after 72 hrs by MTT assay; assay type: functional, cell-based
[15] = biological target: T1, DNA (cytosine-5)-methyltransferase 1; assay: Inhibition of DNMT1 in human DOHH-2 cells assessed as inhibition of H3K9 methylation level incubated for 48 hrs by Western blot analysis; assay type: cell-based; conditions: dose 10-1000 nM
[16] = test system: DOHH-2; assay: Antiproliferative activity against human DOHH-2 cells assessed as inhibition of cell viability measured after 72 hrs by MTT assay; assay type: functional, cell-based; conditions: DOHH-2, 72 h
[17] = test system: TMD8; assay: Antiproliferative activity against human TMD8 cells assessed as inhibition of cell viability measured after 72 hrs by MTT assay; assay type: functional, cell-based; conditions: TMD8, 72 h
[18] = biological target: T1, DNA (cytosine-5)-methyltransferase 1; assay: Inhibition of DNMT1 in human DOHH-2 cells assessed as inhibition of 5-methylcytosine level at 10 to 1000 nM incubated for 48 hrs by Western blot analysis; assay type: cell-based; conditions: dose 10-1000 nM
[19] = Volume of distribution at steady state in Sprague-Dawley rat at 10 mg/kg, po measured upto 24 hrs by LC/MS/MS analysis; assay type: ADME, organism-based; conditions: in vivo
[20] = Cmax in Sprague-Dawley rat at 10 mg/kg, po measured upto 24 hrs by LC/MS/MS analysis; assay type: ADME, organism-based; conditions: in vivo
[21] = Cmax in Sprague-Dawley rat at 10 mg/kg, iv measured upto 24 hrs by LC/MS/MS analysis; assay type: ADME, organism-based; conditions: in vivo
[22] = Volume of distribution at steady state in Sprague-Dawley rat at 10 mg/kg, iv measured upto 24 hrs by LC/MS/MS analysis; assay type: ADME, organism-based; conditions: in vivo, read-out: Vdss
[23] = Apparent clearance during terminal phase in Sprague-Dawley rat at 10 mg/kg, po measured upto 24 hrs by LC/MS/MS analysis; assay type: ADME, organism-based; conditions: in vivo, read-out: CLz/F (converted)
[24] = Terminal elimination half life in Sprague-Dawley rat at 10 mg/kg, po measured upto 24 hrs by LC/MS/MS analysis; assay type: ADME, organism-based; conditions: in vivo, read-out: beta t1/2 (converted)
[25] = AUC (0 to t) in Sprague-Dawley rat at 10 mg/kg, po measured upto 24 hrs by LC/MS/MS analysis; assay type: ADME, organism-based; conditions: Sprague-Dawley, in vivo
[26] = Terminal elimination half life in Sprague-Dawley rat at 10 mg/kg, iv measured upto 24 hrs by LC/MS/MS analysis; assay type: ADME, organism-based; conditions: in vivo, read-out: beta t1/2 (converted)
[27] = AUC (0 to t) in Sprague-Dawley rat at 10 mg/kg, iv measured upto 24 hrs by LC/MS/MS analysis; assay type: ADME, organism-based; conditions: Sprague-Dawley, in vivo
[28] = Clearance in Sprague-Dawley rat at 10 mg/kg, iv measured upto 24 hrs by LC/MS/MS analysis; assay type: ADME, organism-based; conditions: in vivo
[29] = Oral bioavailability in Sprague-Dawley rat at 10 mg/kg measured upto 24 hrs by LC/MS/MS analysis; assay type: ADME, organism-based; conditions: Sprague-Dawley, in vivo

T3 sequence (Q9Y6K1 whole entry, looked up): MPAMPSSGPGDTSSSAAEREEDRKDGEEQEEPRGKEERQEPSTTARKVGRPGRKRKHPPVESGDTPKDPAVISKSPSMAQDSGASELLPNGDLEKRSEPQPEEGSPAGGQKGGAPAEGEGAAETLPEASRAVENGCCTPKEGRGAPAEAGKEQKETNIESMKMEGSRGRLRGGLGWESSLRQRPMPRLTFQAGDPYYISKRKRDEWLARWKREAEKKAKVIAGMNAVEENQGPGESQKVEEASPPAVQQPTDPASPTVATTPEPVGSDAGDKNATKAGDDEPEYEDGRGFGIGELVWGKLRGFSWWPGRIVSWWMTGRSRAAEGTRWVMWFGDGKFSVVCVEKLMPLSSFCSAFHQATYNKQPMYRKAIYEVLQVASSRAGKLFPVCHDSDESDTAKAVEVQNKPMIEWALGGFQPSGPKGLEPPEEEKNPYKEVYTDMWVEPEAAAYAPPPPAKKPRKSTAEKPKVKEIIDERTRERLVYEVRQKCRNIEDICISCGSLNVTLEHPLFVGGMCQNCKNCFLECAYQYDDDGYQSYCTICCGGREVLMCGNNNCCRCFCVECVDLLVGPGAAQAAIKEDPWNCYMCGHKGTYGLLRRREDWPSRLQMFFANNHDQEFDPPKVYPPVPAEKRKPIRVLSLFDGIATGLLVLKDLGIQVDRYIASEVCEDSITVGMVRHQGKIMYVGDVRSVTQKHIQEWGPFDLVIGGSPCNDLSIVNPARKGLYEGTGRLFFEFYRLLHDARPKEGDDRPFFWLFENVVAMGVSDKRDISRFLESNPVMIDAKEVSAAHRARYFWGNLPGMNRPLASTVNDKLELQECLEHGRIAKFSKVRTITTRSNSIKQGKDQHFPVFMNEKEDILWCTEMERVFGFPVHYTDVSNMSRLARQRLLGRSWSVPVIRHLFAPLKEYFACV
T1 sequence (P26358 whole entry): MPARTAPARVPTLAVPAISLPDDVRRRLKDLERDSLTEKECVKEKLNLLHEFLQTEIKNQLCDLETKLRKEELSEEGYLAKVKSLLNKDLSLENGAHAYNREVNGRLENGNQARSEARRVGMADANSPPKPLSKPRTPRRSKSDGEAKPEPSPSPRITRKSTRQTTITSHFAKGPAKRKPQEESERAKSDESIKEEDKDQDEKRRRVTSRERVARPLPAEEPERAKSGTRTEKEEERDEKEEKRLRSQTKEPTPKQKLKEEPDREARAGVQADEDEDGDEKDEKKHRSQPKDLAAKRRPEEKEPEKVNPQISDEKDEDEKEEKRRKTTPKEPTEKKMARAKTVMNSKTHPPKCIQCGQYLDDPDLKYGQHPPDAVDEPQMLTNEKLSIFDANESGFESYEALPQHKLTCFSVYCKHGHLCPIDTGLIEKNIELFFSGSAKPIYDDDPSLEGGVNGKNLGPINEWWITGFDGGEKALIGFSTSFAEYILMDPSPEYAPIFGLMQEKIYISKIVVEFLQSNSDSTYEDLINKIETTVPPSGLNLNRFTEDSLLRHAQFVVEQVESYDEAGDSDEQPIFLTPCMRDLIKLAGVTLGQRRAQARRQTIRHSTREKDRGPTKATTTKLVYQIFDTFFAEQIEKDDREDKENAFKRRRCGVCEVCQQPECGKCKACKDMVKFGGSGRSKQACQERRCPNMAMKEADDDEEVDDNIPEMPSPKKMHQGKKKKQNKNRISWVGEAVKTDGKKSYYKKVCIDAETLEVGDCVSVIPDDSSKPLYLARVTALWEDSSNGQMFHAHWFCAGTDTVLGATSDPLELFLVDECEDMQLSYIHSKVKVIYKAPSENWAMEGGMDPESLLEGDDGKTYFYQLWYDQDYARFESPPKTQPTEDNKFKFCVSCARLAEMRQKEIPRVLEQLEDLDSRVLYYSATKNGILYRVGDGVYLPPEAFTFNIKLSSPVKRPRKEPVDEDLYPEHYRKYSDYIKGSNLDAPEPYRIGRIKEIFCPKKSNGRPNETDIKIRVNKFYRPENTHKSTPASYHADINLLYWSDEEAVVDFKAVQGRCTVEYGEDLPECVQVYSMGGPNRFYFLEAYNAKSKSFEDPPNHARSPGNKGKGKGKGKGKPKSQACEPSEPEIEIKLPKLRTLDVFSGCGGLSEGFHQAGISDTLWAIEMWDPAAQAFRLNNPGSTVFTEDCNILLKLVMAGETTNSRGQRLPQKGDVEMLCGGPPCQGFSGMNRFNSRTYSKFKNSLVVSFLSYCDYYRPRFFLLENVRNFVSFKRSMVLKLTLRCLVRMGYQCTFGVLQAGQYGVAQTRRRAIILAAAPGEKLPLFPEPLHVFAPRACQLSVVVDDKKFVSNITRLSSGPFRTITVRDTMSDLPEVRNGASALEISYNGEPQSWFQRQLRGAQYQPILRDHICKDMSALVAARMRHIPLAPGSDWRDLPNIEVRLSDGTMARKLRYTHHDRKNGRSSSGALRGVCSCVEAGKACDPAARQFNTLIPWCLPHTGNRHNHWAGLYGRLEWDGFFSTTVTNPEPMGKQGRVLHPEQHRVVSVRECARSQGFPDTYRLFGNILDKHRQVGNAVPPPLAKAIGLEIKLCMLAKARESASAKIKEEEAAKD

CN1CCN(c2cc(NCC3CCN(C(=O)C(C)(C)C)CC3)c3cnn(CCCN4CCOCC4)c3c2)CC1
IC50 [1]: 24.4 µM
inhibition [2]: 41%

CN1CCN(c2cc(NCC3CCN(C(=O)NC(C)(C)C)CC3)c3cnn(CCCN4CCOCC4)c3c2)CC1
IC50 [1]: 19.4 µM
inhibition [2]: 0.91%

CN1CCN(c2cc(NCC3CCN(C(=O)C4CCC4)CC3)c3cnn(CCCN4CCOCC4)c3c2)CC1
IC50 [1]: 34.5 µM
inhibition [2]: 9.3%

CN1CCC(Nc2nc(-c3ccncc3)nc3c2ccn3CCCN2CCCC2)CC1
IC50 [3]: 10.1 µM
inhibition [4]: 1.3%
IC50 [1]: 7.7 µM
IC50 [5]: 3.94 µM
inhibition [6]: 8.5%
inhibition [7]: 3.5%
IC50 [8]: > 20 µM
IC50 [9]: > 20 µM
inhibition [10]: 69%
IC50 [11]: > 20 µM

COc1cc2c(NC3CCN(C)CC3)cc(-c3ccc(C)o3)nc2cc1OCCCN1CCCC1
inhibition [12]: Dose-dependent-effect
IC50 [13]: 2.13 µM
IC50 [14]: 0.41 µM
inhibition [15]: Dose-dependent-effect
IC50 [16]: 0.23 µM
IC50 [17]: 0.19 µM
inhibition [18]: Active

CN1CCC(Nc2nc(-c3ccc(F)nc3)nc3c2ccn3CCCN2CCCC2)CC1
IC50 [3]: 2.61 µM
Vdss [19]: 303.6 L/kg
inhibition [4]: 4.2%
IC50 [1]: 3.87 µM
Cmax [20]: 17.3 ng/mL
Cmax [21]: 436 ng/mL
Vd [22]: 33.8 L/kg
inhibition [6]: 6.8%
CL/F [23]: 1050 mL/min/kg
half-life [24]: 3.5 h
AUC(0-t) at 24 h [25]: 116 ng·h/mL
half-life [26]: 7.8 h
AUC(0-t) at 24 h [27]: 2080 ng·h/mL
clearance [28]: 45 mL/min/kg
IC50 [8]: 3.13 µM
IC50 [9]: > 20 µM
inhibition [10]: 72%
bioavailability [29]: 6.5%
